Measurements as given in a melting point compilation (Tetko et al.; mined from patent text by program, amines drawn as free bases though some values may be those of a salt).

Structure (SMILES) | melting point [°C]
CON(C)C(=O)c1ccc(-c2ccc(CN(C)C)cc2)cc1 | 42 to 43
BrCCCCCc1nc2ccccc2[nH]1 | 134 to 136
N#CC1CCCc2c(C(=O)O)cccc21 (stereo not given) | 177 to 179
O=C1NC(=S)CCC1N1Cc2c(cccc2[N+](=O)[O-])C1=S (stereo not given) | 248 to 250
CCC1(O)C(C)=CC(=O)N1Cc1ccccc1 (stereo not given) | 129 to 132
COc1ccc(-c2cccc(C(N)=O)c2)cc1OC1CCCC1 | 133 to 135
CSCc1noc(-c2cc(C(C)(C)C)c(O)c(C(C)(C)C)c2)n1 | 97 to 98
N[C@@]1(C(=O)O)C[C@H](NC(=O)Nc2ccccc2Cl)[C@H]2[C@H](C(=O)O)[C@H]21 (relative stereo) | > 250
N#CCCNc1ccc(CCCN2CCN(c3ccccc3)CC2)cc1 | 141 to 143
O=C(CNS(=O)(=O)c1ccc2[nH]c(=O)c(=O)[nH]c2c1)OCc1ccccc1 | 270 to 280
O=C(/C=C/C=C(c1cccc(F)c1)c1cccc(F)c1)Oc1ccc([N+](=O)[O-])cc1 | 130
CC(C)N(C(=O)C(Cc1ccc(C#N)cc1)NC(=O)OC(C)(C)C)C(C)C (stereo not given) | 172
CC(C)(C)OCCCC1c2ccccc2COc2cccc(O)c21 (stereo not given) | 113 to 115
COc1cc2c(cc1Nc1ncc(Cl)c(Nc3ccccc3S(=O)(=O)N(C)C)n1)CCN(CC(=O)N1CCN(C)CC1)CC2 | 140
COc1cc(-n2c(C#N)c3n(c2=O)CCCCC3)c(F)cc1Cl | 144 to 146
CCCCCCCc1nnc(-c2ccc(O)cc2)s1 | 100
O=c1[nH]c(S)nnc1-c1cc(O)c(O)c([N+](=O)[O-])c1 | 282 to 284
Cc1cc(=O)c(-c2ccc(F)cc2)c(C)o1 | 114 to 115
COC(=O)c1ccc(CNc2ccc3c(c2)C(C)(C)CCC3(C)C)cc1 | 104 to 107
CC(C)(C)n1nnc(NC(=O)C(c2ccccc2)c2ccccc2)n1 | 191 to 192
Cc1cc(Cl)n2nc(CN=[N+]=[N-])nc2n1 | 130 to 132
C=CCc1c(C(=O)OCC)nc2ccccc2c1O | 146 to 147
CCCCC1(N(C)C)CC=C(c2c[nH]c3ncccc23)CC1 (stereo not given) | 142 to 145
CC(NC(=O)NCCCCC1CCSS1)C(=O)O (stereo not given) | 131 to 134
CCCCCS(=O)(=O)NC(=O)/C=C/c1cc(OC2CCOCC2)nn1Cc1ccc(C(F)(F)F)cc1Cl | 160 to 161
O=C1NC(C(=O)NCCO[N+](=O)[O-])C(c2cccs2)O1 (stereo not given) | 101 to 103
Cc1c(Cl)nc2c(C=O)cnn2c1Cl | 137 to 139

Structure (SMILES) | melting point [°C]
CCOc1cccc2c1c(=O)n(C)c1c(-c3noc(C4CC4)n3)ncn21 | 195 to 205
CC12C=CC(=O)C=C1CCC1C2CCC2(C)C(=O)CCC12 (stereo not given) | 138 to 139
CC(C)=NN=c1scc(C)n1C | 139 to 140
O=S(=O)(c1[nH]c(-c2ccc(Cl)cc2)c(Br)c1Br)C(F)(F)F | 165 to 168
Nc1nc(-c2ccc(F)cc2)c(CCN2CCC(n3nnc4cc(F)ccc43)CC2)s1 | 234 to 235
CC(C)Cn1c(CN)c(-c2ccccc2)c2cc(SCC(N)=O)ccc2c1=O | 218 to 220
COc1ccc(S(=O)(=O)C2(C(=O)NO)CCN(Cc3ccc(Br)cc3)CC2)cc1 | 180
N#Cc1ccc2nc3cscc3c(=O)n2c1 | 233 to 234
COc1ccc(Nc2cc(NC(C)C)ncn2)cc1 | 180 to 182
CCOC(=O)c1cn(C)nc1OCc1ccccc1 | 66 to 67
O=C1C2CCCC1CN(Cc1ccccc1)C2 | 48 to 50.5
CN(C)C(=O)c1ccc([N+](=O)[O-])cc1Cl | 116 to 117
Cc1c(C)c2c(c(C)c1NCc1ccc(F)cc1)C(c1ccc(F)cc1)C(C)(C)O2 (stereo not given) | 118 to 120
OCCON=Cc1cncc(-c2ccccc2)c1 | 102 to 104
CCC1(C)COP(=O)(Cc2ccc(N)cc2)OC1 (stereo not given) | 130 to 131
O=C1C2CCCCC2=Nc2ccccc2N1Cc1ccccc1 (stereo not given) | 123 to 125
Cc1ccc(S(=O)(=O)N(F)C(C)(C)C)cc1 | 59 to 62.5
O=C1CSCCN1c1ccc(C(F)(F)F)cc1 | 79 to 80
CN1CCN(c2nn(CC3CC3)c3ccccc23)CC1 | 68 to 70
Clc1ccc(Nc2nc3ccccc3c3[nH]c(C4CCCCCC4)nc23)cc1Cl | 236 to 238
CC(C)N(C)c1cc2c(cc1Cl)NC(=O)CC(c1cccc(-n3nncc3CO)c1)=N2 | 207
O=c1ncc(Br)cn1CCC(O)Cl (stereo not given) | 162 to 164
COc1cc2c(cc1O)CCN(Cc1ccccn1)C2 | 137 to 138
Cc1cc2c(cc1S(=O)(=O)N1CCOCC1)S(=O)(=O)NC(C1CCCCC1)N2 (stereo not given) | 268 to 271
CC(=O)NC1CCC(NC(=O)Nc2ccc(C(F)(F)F)cc2)CC1 (stereo not given) | > 400
CCc1cc(Br)c2c(O)c(C(=O)OC)c(C(=O)OC)nc2c1 | 207 to 208
O=Cc1ccc(C2CCCc3cncn32)cc1 (stereo not given) | 131

Structure (SMILES) | melting point [°C]
CC(=O)NC[C@H]1CN(c2ccc(N3C[C@H]4CN(C(=O)COCc5ccccc5)C[C@H]4C3)c(F)c2)C(=O)O1 | 138 to 140
Cc1ccc2c(c1)c(=O)oc(=O)n2Cc1ccc(F)cc1 | 153
CCOc1ccc(N2CC(C(=O)OC)CC2=O)cc1 (stereo not given) | 67 to 69
O=C(C=Cc1ccc(O)c([N+](=O)[O-])c1)NC12CC3CC(CC(C3)C1)C2 | 162 to 163
COC(=O)Cc1cn(-c2ccccc2)nc1O | 144 to 145
Cc1ccc(Cc2cnc(NCCCN(Cc3ccccc3)c3ccc(Br)cn3)[nH]c2=O)cn1 | 150 to 155
COc1cc(Nc2nccc(-c3ccc(N4CCN(CCO)CC4)nc3)n2)cc(OC)c1OC | 156 to 157
Cc1ccc(S(=O)(=O)Nc2cc(C(C)C)c([N+](=O)[O-])cc2Br)cc1 | 132
O=C(Cc1ccc(C(F)(F)F)cc1)c1ccc(F)cc1 | 93 to 95
Fc1cccc2c1C1=NCCN1C(Cl)=N2 | 281 to 285
NC(=O)c1c(N)sc2ccccc2c1=O | 277 to 279
COc1cc2c(cc1OC)C(=O)C(CC=O)C2 (racemic) | 122
CC(C)Nc1cccnc1N1CCN(C(=O)c2ccc(C(=O)NC[C@H](C)O)cc2)CC1 | 135
O=C1c2ccccc2COc2ccc(CCC(=O)N(O)C3CCCCC3)cc21 | 146 to 147
O=C(Cl)COc1ccc([N+](=O)[O-])cc1 | 84 to 85
Cc1cc(-c2ccc(N(c3ccccc3)c3ccccc3)c(C)c2)ccc1N(c1ccccc1)c1ccccc1 | 175 to 178
C[C@@H](n1cccn1)[C@](O)(Cn1ccnc1)c1ccc(F)cc1F | 142 to 143
COCCC1CCCCc2c1oc(=O)c(C(c1ccccc1)C1CC1)c2O (stereo not given) | 58 to 60
CCCCCCc1nnc2n1-c1ccc(Cl)cc1C(c1ccccc1)=NC2 | 75 to 78
CCOC(=O)C=C(C)NC(=O)C(C)(C)CCl | 76 to 77.5
CN=C1N(C)C(=O)CN1c1ccccc1 | 116 to 118
O=C(O)COc1cccc(CCc2nc(-c3ccccc3)c(-c3ccccc3)o2)c1 | 153 to 154
OC(c1ccccc1)(C1CC1)C(c1ccccc1Cl)n1ccnc1 (stereo not given) | 146
O=C(Cl)C=Cc1cccc([N+](=O)[O-])c1 | 81 to 83.5
CCOC(c1ccccc1)(c1ccccc1)C(C)CNC (stereo not given) | 85
Cc1ccc(CS(=O)c2c(O)cc(C)oc2=O)cc1 (stereo not given) | 156 to 158
CCCCc1nc2c(c(C)c(C)n3nnnc23)n1CC(C)(C)NC(=O)OC(C)(C)C | 179 to 181

Structure (SMILES) | melting point [°C]
CCOC(=O)CN1CCN(c2cc3c(cc2F)c(=O)c(C(=O)O)cn3C2CC2)CC1 | 192 to 194
COC(=O)c1ccc(-c2ccc(OC)c(C(C)(C)C)c2)s1 | 94 to 95
Cc1nc2c3c(ccc2n1C)C(O)C(OC(=O)C(C)(C)C)C(c1ccccc1)O3 (stereo not given) | 148
O=[N+]([O-])c1ccccc1Oc1ccc(Cl)cc1 | 33 to 35
C[C@@H](Nc1ncnc2[nH]c(-c3ccc(CN)cc3)cc12)c1ccccc1 | 253 to 256
Cn1c(=O)cc(-c2ccccc2)c2cc(C(c3ccc(Cl)cc3)n3ccnc3)ccc21 (stereo not given) | 155
CC(C)Cn1c(CNC(=O)OC(C)(C)C)c(-c2ccccc2)c2cc(CCC(=O)O)ccc2c1=O | 182 to 183
COc1ccccc1-c1noc2ccc([N+](=O)[O-])cc12 | 170 to 171
O=C(NCc1ccc2c(c1)OCO2)c1ccccc1 | 115 to 116
CCCCCOc1ccc(-c2cnc(C#N)nc2)cc1 | 100
CCC(=O)SCCNC(=O)CCNC(=O)OCc1ccccc1 | 77 to 104
Cc1noc(NC(=O)N2CCN(c3nc(-c4cccc(Cl)c4)cs3)CC2)c1C | 201 to 202
O=C(OCc1ccccc1)N1CCN2c3ccc([N+](=O)[O-])cc3OCC2C1 (stereo not given) | 138 to 140
COC(=S)NCc1cn(-c2ccc(-n3cccc3)cc2)nn1 | 150
Cn1c(=O)cc(-c2nc(-c3ccccc3)cs2)c2cc(C(c3ccc(Cl)cc3)c3cnc(-c4ccccc4)[nH]3)ccc21 (stereo not given) | 190
COC(=O)NNC(=S)Cc1cccc(C(F)(F)F)c1 | 131 to 132
COC(C)c1cc2c(=O)n(NS(C)(=O)=O)c(=O)[nH]c2cc1C(F)(F)F (stereo not given) | 233 to 236
CC(C)(N)Cc1nc2ccccc2[nH]1 | 209 to 214
CC(C)(C)NCC(O)c1cc(O)ccc1Cl (stereo not given) | 162 to 163
O=C1CNCc2[nH]c3ccccc3c21 | 220 to 233
CN(C(=O)c1ccc(N2CCOCC2)cc1)[C@@H]1CCN(C(=O)C2CCN(C(=O)C3(O)CC3)CC2)C[C@H]1c1ccc(Cl)c(Cl)c1 | 151 to 153
O=C(O)c1cc(Br)cc2c1NCCS2 | 205 to 206
C=CCC(C)(C)C(NC(=O)c1ccc(Cl)cc1)NC(=NC#N)Nc1cccnc1 (stereo not given) | 97 to 98
CCOC(=O)CC(C#N)(CC(=O)OCC)c1ccccn1 | 86.5 to 88
